Values after ≈ are worked out from the molar mass of the structure shown. Values joined by “and” are separate entries in the source; they are usually repeats but may differ in a detail not shown here. Equal entries are not always repeated.
What was measured:
[1] = test system: Trypanosoma cruzi; experiment: Trypanocidal activity against amastigote stage of Trypanosoma cruzi; format: functional, organism-based
[2] = test system: Trypanosoma cruzi; experiment: Trypanocidal activity against epimastigote stage of Trypanosoma cruzi; format: functional, organism-based
[3] = test system: Mycobacterium tuberculosis; experiment: Antimycobacterial activity against Mycobacterium tuberculosis H37Rv measured after 21 days; format: functional; conditions: 504 h, time 21 day
[4] = test system: Leishmania major; experiment: Antileishmanial activity against promastigotes stage of Leishmania major; format: functional, organism-based
[5] = test system: Staphylococcus aureus; experiment: Antibacterial activity against Staphylococcus aureus assessed as bacterial growth inhibition incubated for 16 hrs; format: functional
[6] = test system: MDA-MB-231; experiment: Antiproliferative activity against human MDA-MB-231 cells assessed as cell growth inhibition by MTT assay; format: functional, cell-based
[7] = test system: BT-20; experiment: Anticancer activity against human BT-20 cells assessed as cell growth inhibition incubated for 48 hrs by MTT assay; format: functional, cell-based; conditions: BT-20, 48 h
[8] = test system: DU-145; experiment: Anticancer activity against human DU-145 cells assessed as cell growth inhibition incubated for 48 hrs by MTT assay; format: functional, cell-based; conditions: DU-145, 48 h
[9] = test system: A549; experiment: Anticancer activity against human A549 cells assessed as cell growth inhibition incubated for 48 hrs by MTT assay; format: functional, cell-based; conditions: A549, 48 h
[10] = Anticancer activity against human SK-MEL-128 cells assessed as cell growth inhibition incubated for 48 hrs by MTT assay; format: functional, cell-based; conditions: SK-MEL-128, 48 h
[11] = test system: Mycobacterium tuberculosis; experiment: Antimycobacterial activity against Mycobacterium tuberculosis H37Rv measured after 8 to 9 days; format: functional; conditions: time 8-9 day
[12] = Inhibition of Mycobacterium tuberculosis shikimate dehydrogenase
[13] = test system: Mycobacterium tuberculosis; experiment: Antimycobacterial activity against Mycobacterium tuberculosis H37Rv measured […] by MABA assay; format: functional
[14] = test system: Mycobacterium tuberculosis; experiment: Potency index, ratio of test compound MIC to Pyrazinamide MIC for antimycobacterial activity against Mycobacterium tuberculosis H37Rv; format: functional
[15] = test system: Candida albicans; experiment: Antifungal activity against Candida albicans Y0109 assessed as fungal growth inhibition; format: functional
[16] = test system: Jurkat; experiment: Antiproliferative activity against human jurkat cells assessed as cell growth inhibition incubated for 48 hrs by MTT assay; format: functional, cell-based
[17] = test system: RS4-11; experiment: Antiproliferative activity against human RS4-11 cells assessed as cell growth inhibition incubated for 48 hrs by MTT assay; format: functional, cell-based; conditions: RS4-11, 48 h
[18] = test system: HeLa; experiment: Antiproliferative activity against human HeLa cells assessed as cell growth inhibition incubated for 48 hrs by MTT assay; format: functional, cell-based
[19] = test system: HT-29; experiment: Antiproliferative activity against human HT-29 cells assessed as cell growth inhibition incubated for 48 hrs by MTT assay; format: functional, cell-based; conditions: HT-29, 48 h
[20] = test system: MCF7; experiment: Antiproliferative activity against human MCF7 cells assessed as cell growth inhibition incubated for 48 hrs by MTT assay; format: functional, cell-based; conditions: MCF7, 48 h
[21] = test system: Plasmodium falciparum; experiment: Antimalarial activity against Plasmodium falciparum; format: functional, organism-based
[22] = test system: Xanthomonas oryzae pv. oryzae; experiment: Antibacterial activity against Xanthomonas oryzae pv. oryzae assessed as bacterial growth inhibition; format: functional, organism-based
[23] = test system: Mycobacterium tuberculosis; experiment: Antimycobacterial activity against Mycobacterium tuberculosis H37Rv; format: functional
[24] = Plasmodium falciparum, read-out: IC50

CCCCSC1NN=C(/C=C/C=C/c2ccc3c(c2)OCO3)N1C1CCCCC1 (centres undefined)
IC50 [1]: 3.61 µM | IC50 [2]: 3.18 µM

Brc1ccc(/C=C/c2nnc3c4ccccc4cnn23)cc1
MIC [3]: 0.5 µg/mL (≈ 1.42 µM)

C#Cc1nnc2c3ccccc3cnn12
MIC [3]: 0.5 µg/mL (≈ 2.57 µM)

C[C@@H]1[C@H](O)[C@@H](C)/C=C/C=C/C=C/C=C/C=C/C=C/C=C/[C@H](O[C@@H]2O[C@H](C)[C@@H](O)[C@H](N)[C@@H]2O)C[C@@H]2O[C@](O)(C[C@@H](O)C[C@@H](O)[C@H](O)CC[C@@H](O)C[C@@H](O)CC(=O)O[C@H]1C)C[C@H](O)[C@H]2C(=O)O [AMPHOTERICIN B]
IC50 [4]: 0.0472 µg/mL (≈ 0.0511 µM)

Cc1ccc(C(=O)NCc2nnc(S)n2/N=C/c2ccc([N+](=O)[O-])cc2)cc1
MIC [5]: 3.12 µg/mL (≈ 7.88 µM)

Cc1ccc(-n2nc(C)n(-n3c(-c4cc5ccccc5oc4=O)cs/c3=N\c3ccccc3)c2=O)cc1
IC50 [6]: 0.16 µg/mL (≈ 0.315 µM)

Nn1c(Cc2ccc(Cl)c(Cl)c2)nn(CC(=O)NNC(=O)c2cc3cc(Cl)ccc3oc2=O)c1=O
IC50 [7]: 3.1 µg/mL (≈ 5.76 µM) | IC50 [8]: 3.1 µg/mL (≈ 5.76 µM) | IC50 [9]: 3.1 µg/mL (≈ 5.76 µM) | IC50 [10]: 3.1 µg/mL (≈ 5.76 µM)

CCN(CC)c1ccc2cc(C(=O)NNC(=O)Cn3nc(C)n(N)c3=O)c(=O)oc2c1
IC50 [7]: 3.1 µg/mL (≈ 7.22 µM) | IC50 [8]: 3.1 µg/mL (≈ 7.22 µM) | IC50 [9]: 3.1 µg/mL (≈ 7.22 µM) | IC50 [10]: 3.1 µg/mL (≈ 7.22 µM)

O=[N+]([O-])c1ccc(C2=Nn3c(nnc3-c3ccc(Br)cc3)CC2)cc1
MIC [11]: 0.25 µg/mL (≈ 0.628 µM) | IC50 [12]: 86.39 µg/mL (≈ 217 µM)

CCN(CC)c1ccc2cc(C(=O)NNC(=O)Cn3nc(Cc4ccc(Cl)c(Cl)c4)n(N)c3=O)c(=O)oc2c1
IC50 [7]: 3.1 µg/mL (≈ 5.4 µM) | IC50 [8]: 3.1 µg/mL (≈ 5.4 µM) | IC50 [9]: 3.1 µg/mL (≈ 5.4 µM) | IC50 [10]: 3.1 µg/mL (≈ 5.4 µM)

C(/C=C/c1ccc2c(c1)OCO2)=C\C1=NNC(SCc2ccccc2)N1C1CCCCC1 (centres undefined)
IC50 [1]: 3.61 µM | IC50 [2]: 3.18 µM

COc1ccc(-n2ncn(Cc3cn(Cc4cc(=O)oc5cc(C)ccc45)nn3)c2=O)cc1
MIC [13]: 1.6 µg/mL (≈ 3.6 µM) | Ratio [14]: 2

S=c1[nH]nc(/C=C/C=C/c2ccc3c(c2)OCO3)n1C1CCCCC1
IC50 [1]: 8.87 µM | IC50 [2]: 18.3 µM

O=C(OC1CCN(CC(O)(Cn2cncn2)c2ccc(F)cc2F)CC1)C(F)(F)Cl (centres undefined)
MIC80 [15]: 9 nM (≈ 4.06 ng/mL)

CCCCCCC(=O)OC1CCN(CC(O)(Cn2cncn2)c2ccc(F)cc2F)CC1 (centres undefined)
MIC80 [15]: 9 nM (≈ 4.05 ng/mL)

Nn1c(Cc2ccc(Cl)cc2)nn(CC(=O)NNC(=O)c2cc3cc(Cl)cc(Cl)c3oc2=O)c1=O
IC50 [7]: 3.1 µg/mL (≈ 5.76 µM) | IC50 [8]: 3.1 µg/mL (≈ 5.76 µM) | IC50 [9]: 3.1 µg/mL (≈ 5.76 µM) | IC50 [10]: 3.1 µg/mL (≈ 5.76 µM)

COc1cccc(-c2nc(N)n(C(=O)c3cc(OC)c(OC)c(OC)c3)n2)c1
IC50 [16]: < 1 µM | IC50 [17]: < 1 µM | IC50 [18]: < 1 µM | IC50 [19]: < 1 µM | IC50 [20]: < 1 µM

O=[N+]([O-])c1ccc(C2=Nn3c(nnc3-c3ccnc(F)c3)CC2)cc1
MIC [11]: 0.25 µg/mL (≈ 0.739 µM) | IC50 [12]: 73.57 µg/mL (≈ 217 µM)

COc1ccc(/C=N/n2c(S)nnc2CNC(=O)c2ccc(C)cc2)cc1
MIC [5]: 3.12 µg/mL (≈ 8.19 µM)

Cc1ccc2c(Cn3cc(Cn4cnn(-c5ccccc5)c4=O)nn3)cc(=O)oc2c1
MIC [13]: 1.6 µg/mL (≈ 3.86 µM) | Ratio [14]: 2

CCCCCCCCCNC(=O)Cc1nnc2c3ccccc3cnn12
MIC [3]: 0.5 µg/mL (≈ 1.41 µM)

CC(C)C(=O)OC1CCN(CC(O)(Cn2cncn2)c2ccc(F)cc2F)CC1 (centres undefined)
MIC80 [15]: 9 nM (≈ 3.68 ng/mL)

Brc1ccc(OCc2nn3c(-c4ccc(Br)cc4)nnc3s2)cc1
MIC [11]: 14.4 µg/mL (≈ 30.9 µM) | IC50 [12]: 14.42 µg/mL (≈ 30.9 µM)

Cc1nn(-c2ccccc2)c(-n2cncn2)c1-c1cc(-c2cc[nH]c2)cc2nc3ccccc3n12
IC50 [21]: 0.092 µg/mL and 0.041 µg/mL

CCCC(=O)OC1CCN(CC(O)(Cn2cncn2)c2ccc(F)cc2F)CC1 (centres undefined)
MIC80 [15]: 9 nM (≈ 3.68 ng/mL)

O=C(CSc1nnc(C2CCN(c3ncnc4ccccc34)CC2)n1-c1ccccc1)Nc1cccc([N+](=O)[O-])c1
EC50 [22]: 34.5 µg/mL (≈ 60.9 µM)

C=C(CCCC)C(=O)OC1CCN(CC(O)(Cn2cncn2)c2ccc(F)cc2F)CC1 (centres undefined)
MIC80 [15]: 9 nM (≈ 4.04 ng/mL)

Cc1nn(-c2ccccc2)c(-n2cncn2)c1-c1cc(-c2ccc(-c3cccs3)cc2)cc2nc3ccccc3n12
IC50 [21, 24]: 0.041 µg/mL (≈ 0.0746 µM)

Cc1nn(-c2ccccc2)c(-n2cncn2)c1-c1cc(-c2ccccc2)cc2nc3ccccc3n12
IC50 [21, 24]: 0.041 µg/mL (≈ 0.0877 µM)

COc1ccc(/N=c2\scc(-c3cc4ccccc4oc3=O)n2-n2c(C)nn(-c3ccc(Br)cc3)c2=O)cc1
IC50 [6]: 0.16 µg/mL (≈ 0.266 µM)

CCC(=O)OC1CCN(CC(O)(Cn2cncn2)c2ccc(F)cc2F)CC1 (centres undefined)
MIC80 [15]: 9 nM (≈ 3.55 ng/mL)

CCCCCCCC(=O)OC1CCN(CC(O)(Cn2cncn2)c2ccc(F)cc2F)CC1 (centres undefined)
MIC80 [15]: 9 nM (≈ 4.18 ng/mL)

Cc1ccc(-c2cc(-c3c(C)nn(-c4ccccc4)c3-n3cncn3)n3c(c2)nc2ccccc23)cc1
IC50 [21, 24]: 0.041 µg/mL (≈ 0.0851 µM)

OC1CCC(C(O)c2nnc(-c3ccncc3)[nH]2)CC1O (centres undefined)
MIC [23]: 0.59 µg/mL (≈ 2.03 µM)

O=C(CSc1nnc(C2CCN(c3ncnc4ccccc34)CC2)n1-c1ccccc1)Nc1ccccc1[N+](=O)[O-]
EC50 [22]: 34.5 µg/mL (≈ 60.9 µM)
